What was measured:
Assay type in all cases: functional
Onchocerca lienalis [1] = experiment: MMV: Percent motility assay at a compound concentration of 3.1e-6 M. Activity score legend: 3: Active, 2: Moderately active; 1: Inactive, 0: Toxic; details: at 3.1 µM
Onchocerca lienalis [2] = experiment: MMV: Percent motility assay at a compound concentration of 1.25e-5 M. Activity score legend: 3: Active, 2: Moderately active; 1: Inactive, 0: Toxic; details: at 12.5 µM
Onchocerca lienalis [3] = experiment: MMV: Percent motility assay at a compound concentration of 7.8e-7 M. Activity score legend: 3: Active, 2: Moderately active; 1: Inactive, 0: Toxic; details: at 0.78 µM
Onchocerca lienalis [4] = experiment: MMV: Percent motility assay at a compound concentration of 1.9e-7 M. Activity score legend: 3: Active, 2: Moderately active; 1: Inactive, 0: Toxic; details: at 0.19 µM

With `COc1ccc(Nc2nc(N/N=C/c3ccc(O)cc3)nc(Nc3ccc([N+](=O)[O-])cc3)n2)cc1` as the compound, how does the Motility (Onchocerca lienalis [1]) read?
The Motility was 100%.

What about the Motility (Onchocerca lienalis [2]) of the same compound?
Its Motility is 100%.

What about the Motility (Onchocerca lienalis [3]) of the same compound?
Its Motility is 100%.

And the Motility (Onchocerca lienalis [4])?
The Motility was 100%.

How did the Motility (Onchocerca lienalis [1]) turn out when `O=C(NNc1cc(N2CCCC2)nc(N2CCCC2)n1)c1ccccc1` was run?
The Motility was 100%.

What about the Motility (Onchocerca lienalis [2]) of the same compound?
The Motility was 100%.

What about the Motility (Onchocerca lienalis [3]) of the same compound?
The Motility was 100%.

What about the Motility (Onchocerca lienalis [4]) of the same compound?
Its Motility is 100%.

For `COC(=O)c1ccc(Cl)c2c1C1C=CCC1C(c1cccc3ccccc13)N2` (centres undefined), which Motility (Onchocerca lienalis [1]) is on record?
Its Motility is 100%.

And the Motility (Onchocerca lienalis [2])?
The Motility was 100%.

And the Motility (Onchocerca lienalis [3])?
The Motility was 100%.

And the Motility (Onchocerca lienalis [4])?
The Motility was 100%.

Which results are given for `O=C(CCc1ccccc1)c1ccccc1OCC(O)CN1CCCCC1` (centres undefined)?
Motility (Onchocerca lienalis [1]): 100%; Motility (Onchocerca lienalis [2]): 100%; Motility (Onchocerca lienalis [3]): 100%; Motility (Onchocerca lienalis [4]): 100%

For `CC(=O)c1sc(NC(=O)Nc2ccc(C)cc2C)nc1C`, which Motility (Onchocerca lienalis [1]) is on record?
Its Motility is 100%.

And the Motility (Onchocerca lienalis [2])?
The Motility was 100%.

And the Motility (Onchocerca lienalis [3])?
Its Motility is 100%.

And the Motility (Onchocerca lienalis [4])?
Its Motility is 100%.

How did the Motility (Onchocerca lienalis [1]) turn out when `Cn1c(C(=O)c2cccc3ccccc23)nc2ccccc21` was run?
Its Motility is 100%.

What about the Motility (Onchocerca lienalis [2]) of the same compound?
Its Motility is 100%.

And the Motility (Onchocerca lienalis [3])?
The Motility was 100%.

And the Motility (Onchocerca lienalis [4])?
The Motility was 100%.

Which Motility (Onchocerca lienalis [1]) does the source give for `O=C(Nc1ccc(-c2nc3ccccc3[nH]2)cc1)c1ccc(Cl)c(Cl)c1` here?
Its Motility is 100%.

And the Motility (Onchocerca lienalis [2])?
Its Motility is 100%.

And the Motility (Onchocerca lienalis [3])?
Its Motility is 100%.

And the Motility (Onchocerca lienalis [4])?
Its Motility is 100%.

`OCCNc1nc(Nc2ccc(Cl)c(Cl)c2)nc2ccccc12` was tested. Which Motility (Onchocerca lienalis [1]) did it give?
The Motility was 33.33%.

What about the Motility (Onchocerca lienalis [2]) of the same compound?
The Motility was 20%.

What about the Motility (Onchocerca lienalis [3]) of the same compound?
The Motility was 100%.

What about the Motility (Onchocerca lienalis [4]) of the same compound?
The Motility was 100%.

`Nc1ccc(-c2nc3cc(Oc4ccc(Oc5ccc6[nH]c(-c7ccc(N)cc7)nc6c5)cc4)ccc3[nH]2)cc1` was tested. Which Motility (Onchocerca lienalis [1]) did it give?
Its Motility is 100%.

What about the Motility (Onchocerca lienalis [2]) of the same compound?
The Motility was 100%.

What about the Motility (Onchocerca lienalis [3]) of the same compound?
Its Motility is 100%.

What about the Motility (Onchocerca lienalis [4]) of the same compound?
The Motility was 100%.

Which Motility (Onchocerca lienalis [1]) does the source give for `Cc1cc(N(C)C)nc(Nc2ccc(NC(=O)Nc3ccccc3)cc2)n1` here?
Its Motility is 100%.

And the Motility (Onchocerca lienalis [2])?
The Motility was 100%.

What about the Motility (Onchocerca lienalis [3]) of the same compound?
Its Motility is 100%.

What about the Motility (Onchocerca lienalis [4]) of the same compound?
The Motility was 100%.

What does the source list for `Cc1ccc(Nc2nc(N)c3ccccc3n2)cc1Cl`?
Motility (Onchocerca lienalis [1]): 100%; Motility (Onchocerca lienalis [2]): 100%; Motility (Onchocerca lienalis [3]): 100%; Motility (Onchocerca lienalis [4]): 100%

How did the Motility (Onchocerca lienalis [1]) turn out when `CCc1ccc(CNCC(O)c2ccccc2)cc1.Cl` (centres undefined) was run?
The Motility was 100%.

And the Motility (Onchocerca lienalis [2])?
The Motility was 100%.

What about the Motility (Onchocerca lienalis [3]) of the same compound?
Its Motility is 100%.

What about the Motility (Onchocerca lienalis [4]) of the same compound?
Its Motility is 100%.

`CCCn1c(=N)c(C(=O)NC2CCCCC2)cc2c(=O)n3cccc(C)c3nc21` was tested. Which Motility (Onchocerca lienalis [1]) did it give?
The Motility was 100%.

What about the Motility (Onchocerca lienalis [2]) of the same compound?
Its Motility is 100%.

And the Motility (Onchocerca lienalis [3])?
The Motility was 100%.

What about the Motility (Onchocerca lienalis [4]) of the same compound?
The Motility was 100%.

How did the Motility (Onchocerca lienalis [1]) turn out when `Nc1ccn([C@@H]2O[C@H](CO)[C@@H](O)[C@H]2O)c(=O)n1` [CYTIDINE] was run?
The Motility was 100%.

And the Motility (Onchocerca lienalis [2])?
The Motility was 100%.

And the Motility (Onchocerca lienalis [3])?
Its Motility is 100%.

And the Motility (Onchocerca lienalis [4])?
Its Motility is 100%.

With `O=C(Nc1cccc(C2=NCCN2)c1)Nc1cccc(C2=NCCN2)c1` [IMIDOCARB] as the compound, how does the Motility (Onchocerca lienalis [1]) read?
Its Motility is 100%.

And the Motility (Onchocerca lienalis [2])?
Its Motility is 100%.

What about the Motility (Onchocerca lienalis [3]) of the same compound?
Its Motility is 100%.

And the Motility (Onchocerca lienalis [4])?
Its Motility is 100%.

Which Motility (Onchocerca lienalis [1]) does the source give for `CN(C)c1ccc(C(O)(c2ccc(N(C)C)cc2)c2ccc(N(C)C)cc2)cc1` [METHYLROSANILINE] here?
The Motility was 100%.

And the Motility (Onchocerca lienalis [2])?
Its Motility is 100%.

And the Motility (Onchocerca lienalis [3])?
The Motility was 66.66%.

What about the Motility (Onchocerca lienalis [4]) of the same compound?
The Motility was 100%.

Reference: ChEMBL document CHEMBL3137381, “MMV Box Onchocerca lienalis screening set”
